Laboratory results published in US20240398781A1, “SPIROCYCLIC CYCLIC MODULATORS OF CHOLESTEROL BIOSYNTHESIS AND THEIR USE FOR PROMOTING REMYELINATION” (GENENTECH, INC., priority 2021, published 2024).
Like-named read-outs stand apart in the source and are kept apart here.

What was measured:
EpiSC-derived OPCs = assay: In vitro phenotypic screening of OPCs (MBP staining, high-content imaging); type: cell-based, mouse; conditions: percentage of MBP+ oligodendrocytes, 3 days, 0.5 nM to 1000 nM, read-out: OPC EC50
Procedure: To assess effects of treatments on OPCs, all treatments were assayed in two or more independent platings of epiblast stem cell-derived OPCs (EpiSC). EpiSC-derived OPCs were obtained using in vitro differentiation protocols and culture conditions described previously (Najm et al, 2011, Nature Methods). OPCs were expanded and frozen down in aliquots. OPCs were thawed into growth conditions for at least one passage before use in further assays.
EpiSC-derived OPCs were grown and expanded in poly-L-ornithine (PO) and laminin-coated flasks in N2B27 media (DMEM/F12 (Gibco), N2-MAX (R&D Systems), B-27 (ThermoFisher), and GlutaMax (Gibco)) supplemented with FGF2 ([…], R&D systems, 233-FB-025) and PDGF-AA ([…], R&D systems, 233-AA-050) before harvesting for experiments. The cells were seeded onto poly-L-ornithine or poly-D-lysine coated CellCarrier Ultra plates (PerkinElmer) coated with laminin (Sigma, L2020) at a density of 150,000/cm^2 in N2B27 media without growth factors. For dose-response testing, a 1000× compound stock in dimethyl sulphoxide (DMSO) was added to assay plates, resulting in 8-point dose curves with final concentrations between 1000 nM and 0.5 nM. Positive controls and DMSO vehicle controls were included in each assay plate. Cells were incubated under standard conditions (37° C., 5% CO2) for 3 days and fixed with 4% paraformaldehyde (PFA) in phosphate buffered saline (PBS) for 20 min. Fixed plates were washed with PBS, permeabilized with 0.1% Triton X-100, and blocked with 10% donkey serum (v/v) in PBS for 40 min. Then, cells were labelled with MBP antibodies (Abcam, ab7349; 1:200) for 2 h at room temperature, washed with PBS, and stained with Alexa Fluor conjugated secondary antibodies (1:500) for 45 min. Nuclei were visualized by DAPI staining (Sigma; 1 μg/ml), followed by further PBS washes.
Cells and cell culture plates were imaged on the Operetta High Content Imaging and Analysis system (PerkinElmer). Analysis (PerkinElmer Harmony and Columbus software) began by identifying intact nuclei stained by DAPI. The peri-nuclear region of each cell was then cross-referenced with the mature myelin protein (MBP) stain to identify oligodendrocyte nuclei, and from this the percentage of oligodendrocytes was calculated. EC50 values were calculated using The Levenberg-Marquardt algorithm to fit a Hill equation to dose-response data (0.5 nM to 1000 nM).

[1] = biological target: human emopamil binding protein and human 7-dehydrocholesterol reductase co-expressing cells (hEBP-DHCR7 membrane) (Homo sapiens (Human), UniProt Q15125); assay: Radioligand filter binding assay on hEBP-DHCR7 membrane; conditions: [3H]-(S)-6-(2-Methyl-3-(6-(trifluoromethyl)pyridin-3-yl)propyl)-2-thia-6-azaspiro[3.4]octane 2,2-dioxide radioligand, HEK293 membrane co-expressing hEBP and hDHCR7
Sequence of human emopamil binding protein and human 7-dehydrocholesterol reductase co-expressing cells (hEBP-DHCR7 membrane) (Q15125 whole entry): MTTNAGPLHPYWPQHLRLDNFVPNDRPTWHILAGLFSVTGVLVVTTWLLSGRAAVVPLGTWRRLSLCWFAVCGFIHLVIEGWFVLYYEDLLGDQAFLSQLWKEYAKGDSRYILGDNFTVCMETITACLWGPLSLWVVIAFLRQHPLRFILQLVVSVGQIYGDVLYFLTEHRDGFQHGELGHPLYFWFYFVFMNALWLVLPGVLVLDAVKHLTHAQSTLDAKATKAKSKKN
Procedure: Membrane Preparation: human emopamil binding protein and human 7-dehydrocholesterol reductase co-expressing cells were generated by transient transfecting host human embryonic kidney (HEK) 293 cells with 2 DNA constructs containing each protein's coding sequence. Cells were suspension cultured at 37° C. with 5% CO2 in […] 293 Expression Medium (Thermofisher). Whole cell membrane was prepared by harvesting the cell pellet, adding cold membrane buffer (50 mM Tris, pH7.5, lx Roche COMPLETE EDTA-free protease inhibitor cocktail) 10 times volume of the cell pellets weight, lysing cell pellet on ice by using Dounce homogenizer, spinning at 200 g 4° C. for 15 min, collecting supernatant and spinning again at 25000 g 4° C. for 50 min, transferring pellet to Dounce homogenizer, re-suspending pellet by homogenizing in membrane buffer on ice to reach ˜25 mg/mL, then keeping whole cell membrane aliquots at −80° C.
Compounds were prepared in a 96-well U bottom plate using an Echo550 machine and 10 mM compound DMSO stock solution, followed by an 8-dose 5-fold serial dilutions protocol with final testing compound concentration ranging from 0.06 to 5000 nM, with DMSO back fill to 100 nL/well and n=2. […] The UniFilter-96 GF/B plates were pre-treated by adding 50 μl/well of 0.3% (v/v) PEI to UniFilter-96 GF/B plates. The plates were sealed and incubated at 4° C. for 3 hrs. Then, the plates were washed with ice-cold assay buffer 3 times. The radioligand binding assay was prepared by adding assay buffer diluted hEBP-DHCR7 membrane at 66.7 μg/ml×150 μl/well into the 96-well compound plate to reach 10 μg membrane per well. Then, the assay buffer diluted [3H]—(S)-6-(2-Methyl-3-(6-(trifluoromethyl)pyridin-3-yl)propyl)-2-thia-6-azaspiro[3.4] octane 2,2-dioxide was added at 25 nM×50 μl/well. Following this, the plate was centrifuged at 1000 rpm for 30 secs. The plate was then sealed and agitated at 600 rpm at 22° C. for 5 min, and then incubated at 22° C. for 3 hrs. The incubation was stopped by transferring the binding solution to the pre-treated UniFilter-96 GF/B plate, vacuum filtrated, and then washed four times with ice-cold assay buffer. Following this, the plates were dried at 37° C. for 45 min. The plates were then sealed at the bottom. 40 μl/well of scintillation cocktail was added to the plates. A MicroBeta2 microplate counter was then used to read the plate and analyze the data. For reference and test compounds, the results are expressed as % Inhibition, using the normalization equation: N=100−100×(U−C2)/(C1−C2), where U is the unknown value, C1 is the average of high controls, and C2 is the average value of low controls. The IC50 was determined by fitting percentage of inhibition as a function of compound concentrations with Hill equation using XLfit. Results are expressed as hEBP-DHCR7 Ki (uM) in Table 4. Ki was calculated as described above. The asterix (*) indicates an isolated isomer or isolated group of isomers, but that the stereochemistry has not been assigned.

[2] = test system: EBP (zymostenol accumulation in EpiSC-derived OPCs); assay: GC/MS-based sterol profiling, zymostenol accumulation in OPCs; type: cell-based, mouse; conditions: EpiSC-derived OPCs, 24 hr treatment, 8 doses from 0.15 nM to 333 nM, read-out: Zymostenol GCMS EC50
How it was run: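 EpiSC-derived OPCs (100,000/well) were treated 24 h in N2B27 without growth factors. Sterols were TMS-derivatized and analysed by GC/MS full-scan EI, quantified against cholesterol-d7. Zymostenol was normalized to the level after 24 h with 100 nM positive control reference.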

Row | Compound | EC50 (EpiSC-derived OPCs) | Ki [1] | EC50 [2] | EC50 (EpiSC-derived OPCs; Mus musculus, 72 h) | EC50 ([2]; Mus musculus, 24 h)
1 | O=S1(=O)CC2(CCN([C@@H]3CC[C@@H](c4ccc(C(F)(F)F)nc4)C3)CC2)C1 (single isomer, unassigned) [57B*] | 160 nM | 200 nM | 44 nM | – | –
2 | O=S1(=O)CC[C@]2(CCCN([C@H]3CC[C@@H](c4cc(C(F)(F)F)nn4C4CC4)CC3)C2)C1 (single isomer, unassigned) [69C*] | – | 27 nM | – | 44 nM | 6 nM
3 | O=S1(=O)CC2(CCN([C@@H]3CC[C@@H](c4nc(-c5cccc(C(F)(F)F)n5)nn4C4CC4)C3)CC2)C1 (single isomer, unassigned) [42B*] | – | 390 nM | – | 180 nM | 58 nM
4 | CC(C)c1nc(C(F)(F)F)ccc1[C@H]1CC[C@H](N2CCC3(C2)CS(=O)(=O)C3)CC1 [Compound 65A, 6-((1r,4r)-4-(2-isopropyl-6-(trifluoromethyl)pyridin-3-yl)cyclohexyl)-2-thia-6-azaspiro[3.4]octane 2,2-dioxide] | – | 14 nM | – | 8.9 nM | 4.1 nM
5 | O=S1(=O)CC2(CCN([C@@H]3CC[C@@H](c4ccc(C(F)(F)F)nc4)C3)CC2)C1 (single isomer, unassigned) [57A*] | 65 nM | 160 nM | – | – | 24 nM
6 | O=S1(=O)CC2(CCN([C@H]3CC[C@@H](c4ncc(C(F)(F)F)cc4F)CC3)CC2)C1 [Compound 80B, 7-((1s,4s)-4-(3-fluoro-5-(trifluoromethyl)pyridin-2-yl)cyclohexyl)-2-thia-7-azaspiro[3.5]nonane 2,2-dioxide] | – | 28 nM | – | 38 nM | 8 nM
7 | CCn1nc(-c2ccc(C(F)(F)F)nc2)nc1[C@H]1CC[C@H](N2CCC3(CC2)CS(=O)(=O)C3)CC1 (stereo in doubt) [43A*, (trans)-7-(-4-(1-Ethyl-3-(6-(trifluoromethyl)pyridin-3-yl)-1H-1,2,4-triazol-5-yl)cyclohexyl)-2-thia-7-azaspiro[3.5]nonane 2,2-dioxide] | – | 125 nM | – | 27 nM | 8 nM
8 | O=S1(=O)CC2(CCN([C@H]3CC[C@H](c4ncc(C(F)(F)F)cc4Cl)CC3)C2)C1 [Compound 48A, 6-((1r,4r)-4-(3-chloro-5-(trifluoromethyl)pyridin-2-yl)cyclohexyl)-2-thia-6-azaspiro[3.4]octane 2,2-dioxide] | – | 31 nM | – | 4 nM | 3.7 nM
9 | O=S1(=O)CC2(CCN([C@@H]3CCC[C@@H](c4ccc(C(F)(F)F)nc4)C3)CC2)C1 (single isomer, unassigned) [56D*] | – | 65 nM | – | 690 nM | 150 nM
10 | CC(C)(C)n1nc(C2CC2)nc1[C@@H]1CC[C@H](N2CCC3(C2)CS(=O)(=O)C3)C1 [Compound 74A, 6-((1S,3R)-3-(1-(tert-butyl)-3-cyclopropyl-1H-1,2,4-triazol-5-yl)cyclopentyl)-2-thia-6-azaspiro[3.4]octane 2,2-dioxide] | – | 154 nM | – | 230 nM | 31 nM
11 | CC(C)n1nc(-c2cccc(C(F)(F)F)n2)cc1[C@@H]1CC[C@@H](N2CCC3(CC2)CS(=O)(=O)C3)C1 (single isomer, unassigned) [46A*] | – | 31 nM | – | 2.5 nM | 1.3 nM
12 | O=S1(=O)CC2(CCN([C@H]3CC[C@@H](c4nc(-c5cccc(C(F)(F)F)n5)nn4C4CC4)C3)CC2)C1 (single isomer, unassigned) [42A*] | – | 570 nM | – | 93 nM | 43 nM
13 | CC(C)n1nc(-c2ccc(C(F)(F)F)cc2)nc1[C@@H]1CC[C@@H](N2CCC3(C2)CS(=O)(=O)C3)C1 (single isomer, unassigned) [53D*] | – | 96 nM | – | 3.3 nM | 1 nM
14 | O=S1(=O)CC2(CCN(C3CCN(c4ncc(C(F)(F)F)cc4C4CC4)CC3)C2)C1 [Compound 44, 6-(1-(3-Cyclopropyl-5-(trifluoromethyl)pyridin-2-yl)piperidin-4-yl)-2-thia-6-azaspiro[3.4]octane 2,2-dioxide] | – | 9 nM | – | 14 nM | 4 nM
15 | CCc1nc(C(F)(F)F)ccc1[C@H]1CC[C@H](N2CCC3(C2)CS(=O)(=O)C3)CC1 [Compound 64A, 6-((1r,4r)-4-(2-ethyl-6-(trifluoromethyl)pyridin-3-yl)cyclohexyl)-2-thia-6-azaspiro[3.4]octane 2,2-dioxide] | – | 15 nM | – | 11 nM | 3.7 nM
16 | O=S1(=O)CC2(CCN([C@H]3CC[C@H](c4cc(C(F)(F)F)ncn4)CC3)C2)C1 [Compound 83, 6-((1r,4r)-4-(6-(Trifluoromethyl)pyrimidin-4-yl)cyclohexyl)-2-thia-6-azaspiro[3.4]octane 2,2-dioxide] | – | 120 nM | – | 280 nM | 34 nM
17 | O=S1(=O)CC2(CCN([C@@H]3CCC[C@@H](c4ccc(C(F)(F)F)nc4)C3)C2)C1 (single isomer, unassigned) [54B*] | – | 100 nM | – | 1000 nM | 240 nM
18 | O=S1(=O)CC2(CCN(C3CC[C@H](c4nc(-c5cccc(C(F)(F)F)n5)nn4C4CC4)C3)CC2)C1 (stereo in doubt) [42C*, 7-((1S,3S)-3-(1-Cyclopropyl-3-(6-(trifluoromethyl)pyridin-2-yl)-1H-1,2,4-triazol-5-yl)cyclopentyl)-2-thia-7-azaspiro[3.5]nonane 2,2-dioxide] | – | 1180 nM | – | 190 nM | 88 nM
19 | CC(C)n1nc(C(F)(F)F)cc1[C@H]1CCC[C@H](N2CCC3(CC2)CS(=O)(=O)C3)C1 (single isomer, unassigned) [78D*] | – | 37 nM | – | 124 nM | 19 nM
